24 compounds from patent EP0847397B1, “WATER-SOLUBLE C-RING ANALOGUES OF 20 (S)-CAMPTOTHECIN” (DR. REDDY'S RESEARCH FOUNDATION, priority 1996, dated 1997) can be followed below.

Data set [1] in a line: Lactone stability in whole blood (HPLC). The note with it: 100 μM, 37°C, lactone peak area relative to zero time (100%); for Lactone Stability in Whole Blood (after 3 hours): 180 min. The format is in vitro ADME. Here is the method: 2. Lactone Stability in whole blood:
2 ml of blood from a healthy volunteer was collected in a tube containing 40 µl of heparin (572 IU) to prevent coagulation, 4 mM and 40 µM working solutions of the drug in DMSO were prepared and added to aliquots of whole blood to give final concentration of 100 µM and 1 µM respectively. The drug is incubated in whole blood at 37°C and 20 µl samples are collected into 180 µl of chilled methanol (-30°C) at different time intervals (0, 1, 2 & 3 hrs). Vortex and then centrifuge at 11000 rpm for 3 min in a microcentrifuge at room temperature. Dilute 100 µl of the supernatant with water to 300-500 µl depending upon the signal response (UV for 100 µM concentration and fluoroscence for 1 µM concentration) of the compound. 200 µl of the diluted sample is injected on to the HPLC column previously equilibrated with the mobile phase. The area under peak corrsponding to lactone forms is measured. Zero time peak area is taken as 100%, and the proportion of lactone peak area at different time points is calculated to determine the equilibrium lactone stability as obtained by consistent lactone proportion over two successive time points. (Biochemistry, 1994; 33:10325-10336 and J. Pharm. Sci., 1995; 84:518-519).

The subject of data set [2] is NCI's 60 human tumor cell line assay. Put plainly: cells. Particulars: 60 cell, 48 h, read-out: IC50 (mean GI50 against NCI's 60 human tumor cell line assay). The data set is classed as cell-based.
Description: Each test compound was screened against a battery of 60 human cell lines obtained from eight organs. In a typical procedure, the cell suspensions that were diluted according to the particular cell type and the expected target cell density (5000-40,000 cells per well based on cell growth characteristics) were added into 96-well microtiter plates. Inoculates were allowed a preincubation period of 24h at 37°C. for stabilization. Dilutions at twice the intended test concentrations were added at time zero in 100-µl aliquots to microtiter plate wells. Usually test compounds were evaluated at five 10-fold dilutions. The highest well concentration used in the test is 10^-4M. The cells are then incubated in the presence of drug (the test compound) for further 48h in 5% CO2 atmosphere and 100% humidity. At the end of this time, the adherent cells are fixed to the plate by means of trichloroacetic acid, and after a number of washes, the cell layer is treated with the protein stain Sulforhodamine B. The optical density which is proportional to protein mass, is then read by automated spectrophotometric plate readers at a wavelength of 515 nm. Readings are transferred to a microcomputer and final reports are generated using especially developed software.

`CCOC1c2cc3c(O)cccc3nc2-c2cc3c(c(=O)n21)COC(=O)[C@]3(O)CC` (single isomer, unassigned) [Example 11 Diastereomer A, 5-Ethoxy-9-hydroxycamptothecin]: the remaining at 3 h, 100 µM in data set [1] (human, whole blood, read-out: Lactone Stability in Whole Blood (after 3 hours)) turned out to be 3.73 ± 1.5%.
Consider `CCOC1c2cc3c(O)cccc3nc2-c2cc3c(c(=O)n21)COC(=O)[C@]3(O)CC` (single isomer, unassigned) [Example 11 Diastereomer B, 5-Ethoxy-9-hydroxycamptothecin], for which the “Lactone Stability in Whole Blood (after 3 hours)” value (from here on “Lactone Stability in Whole Blood”) in data set [1] was found to be 6.15±2.53.
On to `CC[C@@]1(O)C(=O)OCc2c1cc1n(c2=O)C(OCC(F)(F)F)c2cc3cc(O)ccc3nc2-1` (single isomer, unassigned) [Example 27 Diastereomer A, 10-Hydroxy-5-trifluoroethoxycamptothecin], for which, in data set [1], the “Lactone Stability in Whole Blood” value stood at 4.58±1.72.
Turning to `CC[C@@]1(O)C(=O)OCc2c1cc1n(c2=O)C(OCC(F)(F)F)c2cc3cc(O)ccc3nc2-1` (single isomer, unassigned) [Example 27 Diastereomer B, 10-Hydroxy-5-trifluoroethoxycamptothecin], in data set [1], the “Lactone Stability in Whole Blood” value was determined as 11.9±2.91.
For the compound `CCc1c2c(nc3ccccc13)-c1cc3c(c(=O)n1C2OCCN1CCCCC1)COC(=O)[C@]3(O)CC` (stereo partly drawn) [7-Ethyl-5-piperidinoethoxy camptothecin], the mean GI50 in data set [2] was greater than 30 µM.
For the compound `CCc1c2c(nc3ccccc13)-c1cc3c(c(=O)n1C2OCC(F)(F)F)COC(=O)[C@]3(O)CC` (stereo partly drawn) [7-Ethyl-5-trifluoroethoxycamptothecin], the mean GI50 in data set [2] was 7.41 µM.
Take `CC[C@@]1(O)C(=O)OCc2c1cc1n(c2=O)C(OCCOC)c2cc3c([N+](=O)[O-])cccc3nc2-1` (stereo partly drawn) [9-Nitro-5-methoxyethoxy camptothecin]: the mean GI50 in data set [2] came to 2.04 µM.
Consider `CC[C@@]1(O)C(=O)OCc2c1cc1n(c2=O)C(OC)c2cc3ccccc3nc2-1` (stereo partly drawn) [Example 1, 5-methoxycamptothecin], for which, in data set [2], the mean GI50 was 8.5 µM.
For `CCOC1c2c(nc3ccccc3c2CC)-c2cc3c(c(=O)n21)COC(=O)[C@]3(O)CC` (stereo partly drawn) [Example 3, 5-Ethoxy-7-ethylcamptothecin], in data set [2], the mean GI50 is 1.41 µM.
On to `CCOC1c2cc3c(OC)cccc3nc2-c2cc3c(c(=O)n21)COC(=O)[C@]3(O)CC` (stereo partly drawn) [Example 5, 5-Ethoxy-9-methoxycamptothecin], for which the mean GI50 in data set [2] is 2.45 µM.
For `CCOC1c2c(nc3cccc(OC)c3c2CC)-c2cc3c(c(=O)n21)COC(=O)[C@]3(O)CC` (stereo partly drawn) [Example 7, 5-Ethoxy-9-methoxy-7-ethylcamptothecin], the mean GI50 in data set [2] was 2.13 µM.
`CCOC1c2cc3ccccc3nc2-c2cc3c(c(=O)n21)COC(=O)[C@]3(O)CC` (stereo partly drawn) [Example 9, 5-Ethoxycamptothecin]: in data set [2], the mean GI50 turned out to be 9.54 µM.
Take `CCCCOC1c2cc3ccccc3nc2-c2cc3c(c(=O)n21)COC(=O)[C@]3(O)CC` (stereo partly drawn) [Example 10, 5-butoxycamptothecin]: the mean GI50 in data set [2] worked out at 6.16 µM.
Same read-out and setting: to `CCOC1c2cc3cccc([N+](=O)[O-])c3nc2-c2cc3c(c(=O)n21)COC(=O)[C@]3(O)CC` (stereo partly drawn) [Example 16, 12-Nitro-5-ethoxycamptothecin] belongs greater than 30 µM; to `CC[C@@]1(O)C(=O)OCc2c1cc1n(c2=O)C(OC)c2cc3c(N)cccc3nc2-1` (stereo partly drawn) [Example 20, 9-amino-5-methoxycamptothecin], 6.76 µM.
With `CC[C@@]1(O)C(=O)OCc2c1cc1n(c2=O)C(O)c2cc3cccc([N+](=O)[O-])c3nc2-1` (stereo partly drawn) [Example 23, 12-Nitro-5-hydroxy camptothecin], in data set [2], the mean GI50 is greater than 30 µM.
Take `CC[C@@]1(O)C(=O)OCc2c1cc1n(c2=O)C(OCCCl)c2cc3ccccc3nc2-1` (stereo partly drawn) [Example 24, 5-(2'-Chloroethoxy)camptothecin]: the mean GI50 in data set [2] turned out to be 4.57 µM.
Regarding `CC[C@@]1(O)C(=O)OCc2c1cc1n(c2=O)C(OCCF)c2cc3ccccc3nc2-1` (stereo partly drawn) [Example 29, 5-(2'-fluoroethoxy)camptothecin], the mean GI50 in data set [2] was 1.58 µM.
As to `CCc1c2c(nc3ccccc13)-c1cc3c(c(=O)n1C2OCCF)COC(=O)[C@]3(O)CC` (stereo partly drawn) [Example 31, 5-(2'-Fluoroethoxy)-7-ethylcamptothecin], the mean GI50 in data set [2] came to 4.36 µM.
Regarding `CC[C@@]1(O)C(=O)OCc2c1cc1n(c2=O)C(OCCO)c2cc3cc(O)ccc3nc2-1` (stereo partly drawn) [Example 33, 5-(2'-Hydroxyethoxy)-10-hydroxycamptothecin], in data set [2], the mean GI50 stood at 8.12 µM.
For the compound `CC[C@@]1(O)C(=O)OCc2c1cc1n(c2=O)C(OCCN)c2cc3ccccc3nc2-1` (stereo partly drawn) [Example 36, 5-(2'-aminoethoxy) camptothecin], the mean GI50 in data set [2] turned out to be 30 µM.
Turning to `CCc1c2c(nc3ccccc13)-c1cc3c(c(=O)n1C2OCCCN(C)C)COC(=O)[C@]3(O)CC` (stereo partly drawn) [Example 38, 5-(3'-dimethylaminopropoxy)-7-ethylcamptothecin], the mean GI50 in data set [2] was greater than 30 µM.
The same measure, in the same setting: the value for `CCc1c2c(nc3ccccc13)-c1cc3c(c(=O)n1C2OCCCl)COC(=O)[C@]3(O)CC` (stereo partly drawn) [Example 40, 5-(2'-chloroethoxy)-7-ethylcamptothecin] was 2.75 µM.
For the compound `CCc1c2c(nc3ccccc13)-c1cc3c(c(=O)n1C2OCCN(C)C)COC(=O)[C@]3(O)CC` (stereo partly drawn) [Example 41, 5-(2'-dimethylaminoethoxy)-7-ethylcamptothecin], the mean GI50 in data set [2] was found to be 13.8 µM.
